Results on two compounds are retold here after patent publication US8524897B2, “Crystalline oxazine derivative” (Novartis AG, priority 2011, dated 2013).

Series [1] is described as follows: Chemical stability of amorphous versus crystalline material exposed to high temperature/humidity for one week (UPLC purity, solid state). Type of series: physicochemical. As for the experimental part:
Chemical stability of amorphous versus crystalline 5-cyano-3-methyl-pyridine-2-carboxylic acid [3-((3R,6R)-5-amino-3,6-dimethyl-6-trifluoromethyl-3,6-dihydro-2H-[1,4]oxazin-3-yl)-4-fluoro-phenyl]-amide when exposed to high temperature/humidity for one week
The stability of amorphous versus crystalline 5-cyano-3-methyl-pyridine-2-carboxylic acid [3-((3R,6R)-5-amino-3,6-dimethyl-6-trifluoromethyl-3,6-dihydro-2H-[1,4]oxazin-3-yl)-4-fluoro-phenyl]-amide was tested by exposing the amorphous or crystalline material to high temperature and/or humidity for one week. After storage at high temperature and/or humidity, bulk amorphous or crystalline material was sampled and dissolved in acetonitrile and the purity analysed in a Aquity UPLC from Waters using the following conditions: […]

Series [2] relates to amyloid peptide 1-40 release from Chinese hamster ovary cells transfected with the human gene for amyloid precursor protein. The series can be described thus: Test 4: Inhibition of cellular release of amyloid peptide 1-40. Conditions: mean IC50, Test 4, CHO cells with human APP, 24 hours; read-out: Amyloid-β1-40 release IC50. Type of series: cell-based. The protocol: (§1) Test 4: Inhibition of Cellular Release of Amyloid Peptide 1-40
(§2) Chinese hamster ovary cells are transfected with the human gene for amyloid precursor protein. The cells are plated at a density of 8000 cells/well into 96-well microtiter plates and cultivated for 24 hours in DMEM cell culture medium containing 10% FCS. The test compound is added to the cells at various concentrations, and the cells are cultivated for 24 hours in the presence of the test compound. The supernatants are collected, and the concentration of amyloid peptide 1-40 is determined using state of the art immunoassay techniques, for example sandwich ELISA, homogenous time-resolved fluorescence (HTRF) immunoassay, or electro-chemiluminescence immunoassay.

Assay in series [3]: as above
In kind it is cell-based, Chinese hamster. The following applies: Cricetulus griseus, CHO, 24 h, mean IC50, Test 4, CHO cells with human APP, read-out: Amyloid-β1-40 release IC50. As for the experimental part: as §1, §2

For the compound `Cc1cc(C#N)cnc1C(=O)Nc1ccc(F)c([C@]2(C)CO[C@@](C)(C(F)(F)F)C(N)=N2)c1` [Example 1 Crystalline, 5-cyano-3-methyl-pyridine-2-carboxylic acid [3-((3R,6R)-5-amino-3,6-dimethyl-6-trifluoromethyl-3,6-dihydro-2H-[1,4]oxazin-3-yl)-4-fluoro-phenyl]-amide], the Purity-% in series [1] (40° C./75% RH, one week) was found to be 98.23%; in series [1] (50° C., one week, listed as Crystalline), 98.05%; in series [1] (80° C., one week, listed as Crystalline), 98.01%; in series [1] (RT, 0 (start), listed as Crystalline), 98.7%. The “Solid State” value in series [1] (40° C./75% RH, one week) is “Crystalline”; in series [1] (50° C., one week), “Crystalline”; in series [1] (80° C., one week, Low = lower peaks when measured by XRPD), “Crystalline,”; in series [1] (RT, 0 (start)), “Crystalline”. For the same compound, the IC50 in series [2] amounted to 2 nM.
For the compound `Cc1cc(C#N)cnc1C(=O)Nc1ccc(F)c([C@]2(C)CO[C@@](C)(C(F)(F)F)C(N)=N2)c1` [Example 1 Amorphous, 5-cyano-3-methyl-pyridine-2-carboxylic acid [3-((3R,6R)-5-amino-3,6-dimethyl-6-trifluoromethyl-3,6-dihydro-2H-[1,4]oxazin-3-yl)-4-fluoro-phenyl]-amide], the Purity-% in series [1] (50° C., one week, listed as Amorphous) stood at 91.6%; in series [1] (80° C., one week, listed as Amorphous), 55.8%; in series [1] (RT, 0 (start), listed as Amorphous), 96.4%; in series [1] (RT, one week) it was 96.3%. The concentration for half-maximal inhibition (IC50) in series [3] was determined as 2.6 nM.
